{"source": "ChEMBL document CHEMBL5360540", "about": "“Antitumor effect of 3-(quinolin-2-ylmethylene)-4,6-dimethyl-5-hydroxy-7-azaoxindole down-regulating the Gas6-Axl axis” (Eur J Med Chem, 2023)", "key": {"[1]": {"biological_target": "Macrophage colony-stimulating factor 1 receptor (Homo sapiens, UniProt P07333)", "sequence (P07333 whole entry)": "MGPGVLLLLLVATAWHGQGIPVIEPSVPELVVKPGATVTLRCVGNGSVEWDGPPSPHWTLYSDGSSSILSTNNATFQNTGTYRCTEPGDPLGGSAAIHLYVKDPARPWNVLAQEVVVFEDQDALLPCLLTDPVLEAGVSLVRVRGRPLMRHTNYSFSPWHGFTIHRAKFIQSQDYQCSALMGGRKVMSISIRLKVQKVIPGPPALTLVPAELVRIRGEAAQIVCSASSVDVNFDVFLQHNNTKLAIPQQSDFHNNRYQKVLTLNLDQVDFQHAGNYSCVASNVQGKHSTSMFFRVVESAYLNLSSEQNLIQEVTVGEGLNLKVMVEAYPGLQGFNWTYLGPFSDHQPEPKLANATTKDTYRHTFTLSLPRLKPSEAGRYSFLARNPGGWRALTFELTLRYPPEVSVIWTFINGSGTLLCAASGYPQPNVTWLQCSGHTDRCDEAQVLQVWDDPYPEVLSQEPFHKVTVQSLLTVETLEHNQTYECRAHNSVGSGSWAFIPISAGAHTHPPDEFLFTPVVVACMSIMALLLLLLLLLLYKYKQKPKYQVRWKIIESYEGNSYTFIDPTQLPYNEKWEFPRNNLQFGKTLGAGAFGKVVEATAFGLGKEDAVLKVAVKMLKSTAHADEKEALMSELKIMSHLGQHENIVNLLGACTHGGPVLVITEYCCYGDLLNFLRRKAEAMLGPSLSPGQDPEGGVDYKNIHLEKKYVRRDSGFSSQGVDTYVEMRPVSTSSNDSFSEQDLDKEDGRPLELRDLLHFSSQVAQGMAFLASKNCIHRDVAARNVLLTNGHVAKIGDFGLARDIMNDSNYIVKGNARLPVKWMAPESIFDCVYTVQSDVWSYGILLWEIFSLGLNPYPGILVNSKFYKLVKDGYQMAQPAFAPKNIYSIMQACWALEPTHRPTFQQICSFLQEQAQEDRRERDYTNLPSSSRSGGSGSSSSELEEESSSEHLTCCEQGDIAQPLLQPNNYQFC", "assay": "Inhibition of human CSF1R using MEK1 as substrate incubated for 40 mins by gamma33P-ATP based scintillation counter analysis"}, "[2]": {"biological_target": "Mast/stem cell growth factor receptor Kit (Homo sapiens, UniProt P10721)", "sequence (P10721 whole entry)": "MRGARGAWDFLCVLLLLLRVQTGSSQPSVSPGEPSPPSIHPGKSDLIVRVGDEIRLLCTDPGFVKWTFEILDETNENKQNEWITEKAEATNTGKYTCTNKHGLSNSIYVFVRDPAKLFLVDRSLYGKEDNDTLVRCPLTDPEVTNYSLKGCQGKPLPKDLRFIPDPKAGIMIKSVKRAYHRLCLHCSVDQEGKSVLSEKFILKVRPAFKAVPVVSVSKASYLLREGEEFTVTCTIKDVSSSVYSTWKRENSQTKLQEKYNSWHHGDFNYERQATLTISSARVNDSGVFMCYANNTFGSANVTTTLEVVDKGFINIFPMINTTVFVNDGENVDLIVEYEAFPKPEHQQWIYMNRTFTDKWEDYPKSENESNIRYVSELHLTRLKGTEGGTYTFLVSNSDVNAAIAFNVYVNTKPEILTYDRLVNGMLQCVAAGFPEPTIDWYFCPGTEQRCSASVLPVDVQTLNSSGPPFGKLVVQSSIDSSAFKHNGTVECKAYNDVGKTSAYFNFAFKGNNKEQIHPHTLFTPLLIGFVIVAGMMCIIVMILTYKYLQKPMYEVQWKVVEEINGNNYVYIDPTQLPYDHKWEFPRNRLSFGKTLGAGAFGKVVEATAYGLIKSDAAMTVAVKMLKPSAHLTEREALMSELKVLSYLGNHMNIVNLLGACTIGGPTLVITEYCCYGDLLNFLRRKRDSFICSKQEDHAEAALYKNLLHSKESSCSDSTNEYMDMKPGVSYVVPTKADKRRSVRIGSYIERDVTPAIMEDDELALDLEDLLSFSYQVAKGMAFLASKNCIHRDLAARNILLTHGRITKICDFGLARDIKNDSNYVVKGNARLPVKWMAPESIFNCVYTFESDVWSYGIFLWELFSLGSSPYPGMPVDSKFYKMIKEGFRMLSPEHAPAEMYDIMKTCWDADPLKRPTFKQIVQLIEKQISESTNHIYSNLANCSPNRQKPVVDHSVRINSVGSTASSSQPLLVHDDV", "assay": "Inhibition of human c-Kit using MEK1 as substrate incubated for 40 mins by gamma33P-ATP based scintillation counter analysis"}, "[3]": {"biological_target": "Epidermal growth factor receptor (Homo sapiens, UniProt P00533)", "assay": "Inhibition of human EGFR using MEK1 as substrate incubated for 40 mins by gamma33P-ATP based scintillation counter analysis"}, "[4]": {"biological_target": "Platelet-derived growth factor receptor beta (Homo sapiens, UniProt P09619)", "sequence (P09619 whole entry)": "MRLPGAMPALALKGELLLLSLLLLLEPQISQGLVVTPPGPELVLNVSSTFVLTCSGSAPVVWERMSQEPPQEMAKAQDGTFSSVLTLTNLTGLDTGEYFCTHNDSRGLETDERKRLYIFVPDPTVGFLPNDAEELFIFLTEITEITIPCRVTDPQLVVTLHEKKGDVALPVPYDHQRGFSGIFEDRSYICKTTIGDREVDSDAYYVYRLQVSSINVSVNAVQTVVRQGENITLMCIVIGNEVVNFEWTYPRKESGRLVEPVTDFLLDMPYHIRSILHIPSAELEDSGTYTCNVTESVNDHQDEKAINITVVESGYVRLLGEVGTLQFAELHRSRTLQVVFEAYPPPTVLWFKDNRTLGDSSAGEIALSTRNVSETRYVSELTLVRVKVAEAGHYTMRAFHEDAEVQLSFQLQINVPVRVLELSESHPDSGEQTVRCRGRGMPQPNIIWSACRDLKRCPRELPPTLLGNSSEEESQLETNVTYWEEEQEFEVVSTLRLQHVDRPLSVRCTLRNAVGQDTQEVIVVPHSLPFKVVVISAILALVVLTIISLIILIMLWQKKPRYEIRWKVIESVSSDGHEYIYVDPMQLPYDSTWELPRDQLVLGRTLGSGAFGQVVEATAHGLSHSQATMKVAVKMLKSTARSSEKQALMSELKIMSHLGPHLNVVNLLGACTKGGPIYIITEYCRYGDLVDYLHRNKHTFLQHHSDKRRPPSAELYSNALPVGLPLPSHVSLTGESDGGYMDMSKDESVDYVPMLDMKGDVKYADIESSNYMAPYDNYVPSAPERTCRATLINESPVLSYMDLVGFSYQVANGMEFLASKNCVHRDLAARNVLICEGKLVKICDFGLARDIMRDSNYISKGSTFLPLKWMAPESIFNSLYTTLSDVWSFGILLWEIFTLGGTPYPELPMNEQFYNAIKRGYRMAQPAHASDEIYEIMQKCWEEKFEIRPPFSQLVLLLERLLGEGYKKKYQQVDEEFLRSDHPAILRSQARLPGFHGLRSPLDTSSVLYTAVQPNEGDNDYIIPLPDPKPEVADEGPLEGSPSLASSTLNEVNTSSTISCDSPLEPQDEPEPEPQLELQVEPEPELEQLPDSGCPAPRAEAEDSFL", "assay": "Inhibition of human PDGFRbeta using MEK1 as substrate incubated for 40 mins by gamma33P-ATP based scintillation counter analysis"}, "[5]": {"tested_on": "PANC-1", "assay": "Antitumor activity against human PANC-1 cells xenografted in BALB/c nude mouse assessed as animal survival rate at 3 mg/kg, ip administered 6 times a week and measured for 100 days", "type": "functional", "conditions": "PANC-1, 2400 h, time 100 day"}, "[6]": {"biological_target": "Vascular endothelial growth factor receptor 2 (Homo sapiens, UniProt P35968)", "sequence (P35968 whole entry)": "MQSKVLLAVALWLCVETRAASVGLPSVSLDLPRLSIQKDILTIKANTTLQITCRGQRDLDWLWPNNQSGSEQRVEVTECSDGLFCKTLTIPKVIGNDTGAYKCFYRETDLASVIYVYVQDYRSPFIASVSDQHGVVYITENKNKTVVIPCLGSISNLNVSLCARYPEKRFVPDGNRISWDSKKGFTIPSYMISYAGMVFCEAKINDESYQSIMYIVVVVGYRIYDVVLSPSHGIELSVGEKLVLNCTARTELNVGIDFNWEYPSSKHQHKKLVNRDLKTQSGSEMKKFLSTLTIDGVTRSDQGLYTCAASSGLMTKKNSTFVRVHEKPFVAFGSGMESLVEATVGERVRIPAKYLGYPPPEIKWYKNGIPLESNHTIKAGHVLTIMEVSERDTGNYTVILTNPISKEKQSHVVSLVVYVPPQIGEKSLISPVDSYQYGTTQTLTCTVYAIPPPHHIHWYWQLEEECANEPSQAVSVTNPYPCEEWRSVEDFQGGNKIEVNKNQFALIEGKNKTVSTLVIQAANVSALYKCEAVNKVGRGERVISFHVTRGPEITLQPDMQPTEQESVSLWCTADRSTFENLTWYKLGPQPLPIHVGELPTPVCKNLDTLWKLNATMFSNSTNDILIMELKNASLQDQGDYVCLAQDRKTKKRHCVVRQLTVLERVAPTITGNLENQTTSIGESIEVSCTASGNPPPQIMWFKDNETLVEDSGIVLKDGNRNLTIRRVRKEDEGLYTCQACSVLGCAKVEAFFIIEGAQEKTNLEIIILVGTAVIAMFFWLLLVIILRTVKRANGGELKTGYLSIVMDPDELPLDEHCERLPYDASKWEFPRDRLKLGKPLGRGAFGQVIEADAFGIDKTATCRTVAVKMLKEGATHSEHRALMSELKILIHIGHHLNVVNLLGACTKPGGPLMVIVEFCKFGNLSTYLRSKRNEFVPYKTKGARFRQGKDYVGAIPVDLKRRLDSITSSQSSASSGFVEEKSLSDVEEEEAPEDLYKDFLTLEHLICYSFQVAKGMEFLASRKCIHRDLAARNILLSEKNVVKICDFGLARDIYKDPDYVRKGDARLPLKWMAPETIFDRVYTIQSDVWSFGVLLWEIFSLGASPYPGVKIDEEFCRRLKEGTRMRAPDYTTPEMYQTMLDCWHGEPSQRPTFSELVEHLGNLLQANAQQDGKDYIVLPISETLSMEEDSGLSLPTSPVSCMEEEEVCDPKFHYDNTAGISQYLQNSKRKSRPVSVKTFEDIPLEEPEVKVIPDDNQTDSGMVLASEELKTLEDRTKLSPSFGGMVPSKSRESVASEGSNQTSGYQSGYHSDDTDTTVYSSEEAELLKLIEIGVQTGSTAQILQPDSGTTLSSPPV", "assay": "Inhibition of human VEGFR2 using MEK1 as substrate incubated for 40 mins by gamma33P-ATP based scintillation counter analysis"}, "[7]": {"biological_target": "T1, Receptor-type tyrosine-protein kinase FLT3 (Homo sapiens, UniProt P36888)", "T1 sequence (P36888 whole entry)": "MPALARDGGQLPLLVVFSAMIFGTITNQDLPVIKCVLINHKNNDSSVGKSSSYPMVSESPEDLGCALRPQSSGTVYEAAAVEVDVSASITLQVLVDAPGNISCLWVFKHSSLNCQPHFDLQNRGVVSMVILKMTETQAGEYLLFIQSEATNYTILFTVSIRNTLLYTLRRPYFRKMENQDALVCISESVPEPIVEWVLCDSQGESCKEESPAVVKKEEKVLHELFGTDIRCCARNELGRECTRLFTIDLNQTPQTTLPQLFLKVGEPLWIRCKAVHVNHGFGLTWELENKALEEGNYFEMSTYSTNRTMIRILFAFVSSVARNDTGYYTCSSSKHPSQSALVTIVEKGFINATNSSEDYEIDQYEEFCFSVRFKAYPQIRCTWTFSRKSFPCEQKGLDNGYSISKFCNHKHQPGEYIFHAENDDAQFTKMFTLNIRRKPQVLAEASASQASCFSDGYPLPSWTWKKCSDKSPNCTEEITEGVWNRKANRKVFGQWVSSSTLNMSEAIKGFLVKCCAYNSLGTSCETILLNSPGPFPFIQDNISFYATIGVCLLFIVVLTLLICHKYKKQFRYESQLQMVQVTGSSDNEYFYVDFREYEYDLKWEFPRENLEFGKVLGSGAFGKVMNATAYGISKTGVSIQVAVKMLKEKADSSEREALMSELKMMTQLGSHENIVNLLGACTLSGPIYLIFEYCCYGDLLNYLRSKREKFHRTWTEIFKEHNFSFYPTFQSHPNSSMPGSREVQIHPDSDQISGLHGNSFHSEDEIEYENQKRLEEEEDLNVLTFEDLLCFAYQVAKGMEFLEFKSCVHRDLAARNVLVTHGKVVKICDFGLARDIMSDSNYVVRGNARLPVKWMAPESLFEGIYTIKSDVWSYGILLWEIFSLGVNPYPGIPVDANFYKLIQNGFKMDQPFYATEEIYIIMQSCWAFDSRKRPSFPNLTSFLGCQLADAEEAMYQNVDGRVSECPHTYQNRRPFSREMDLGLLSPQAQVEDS", "assay": "Inhibition of human FLT3 using MEK1 as substrate incubated for 40 mins by gamma33P-ATP based scintillation counter analysis"}}}
{"smiles": "Cc1nc2c(c(C)c1O)/C(=C/c1ccc3ccccc3n1)C(=O)N2", "values": [{"measurement": "IC50", "setting": "[1]", "result": 12.9, "unit": "µM"}, {"measurement": "IC50", "setting": "[2]", "result": 5.7, "unit": "µM"}, {"measurement": "IC50", "setting": "[3]", "result": 18.8, "unit": "µM"}, {"measurement": "IC50", "setting": "[4]", "result": 1000, "unit": "nM"}, {"measurement": "survival at 3 mg/kg", "setting": "[5]", "result": 100, "unit": "%"}, {"measurement": "IC50", "setting": "[6]", "result": "> 10", "unit": "µM"}, {"measurement": "IC50", "setting": "[7]", "result": "> 10", "unit": "µM"}]}
